{"source": "patent US20150037399A1", "about": "“NOVEL USE OF PIPOXOLAN AND ITS PHARMACEUTICAL COMPOSITION” (China Medical University, priority 2013, published 2015)", "system": "PDGF-BB-induced migration of A7r5 cells (VSMCs)", "assay": "Transwell migration assay", "assay_type": "cell-based", "conditions": "PDGF-BB 30 ng/ml 48 hr, vs PDGF-BB control, read-out: percent inhibition of cell migration across the membrane", "protocol": "The VSMCs cell line A7r5 was purchased from Bioresource Collection and Research Center (Hsinchu, Taiwan). A7r5 cells were plated onto 6-well plates in DMEM, supplemented with 10% FBS, 100 units/ml penicillin, 100 μg/ml streptomycin and 2 mM L-glutamine and grown at 37° C. under a humidified 5% CO2 and 95% air at one atmosphere. Effects of pipoxolan on VSMCs migration were further investigated by a transwell migration chamber with a collagen-coated polycarbonate filter. A7r5 cells (2×10^5 cells) were seeded on a transwell apparatus (a 6.5-mm polyethylene terephthalate membrane with 8-μm pores) and treated with pipoxolan (0, 5, 10 and 15 μM) in the presence of PDGF-BB (30 ng/ml) for 48 hr. The cells were then trypsinized, resuspended in 0.5% FBS medium. FBS/DMEM (10%) was added to the bottom chamber of each well as the chemoattractant. Cells were allowed to migrate for 8 hr through the membrane to the underside of the apparatus. Cells were then fixed with methanol for 10 min and stained with Giemsa solution for 30 min. The cells migrating to the lower outside of the insert membrane were counted manually using a microscope and the NIS-Elements software.", "data": [{"smiles": "Cl.O=C1OC(CCN2CCCCC2)OC1(c1ccccc1)c1ccccc1", "note": "(stereo not drawn) [pipoxolan, 5,5-diphenyl-2-(2-piperidin-1-ylethyl)-1,3-dioxolan-4-one hydrochloride]", "values": [{"measurement": "inhibition at 5 µM", "setting": "5 μM", "result": 46.2, "unit": "%"}, {"measurement": "inhibition at 10 µM", "setting": "10 μM", "result": 62.2, "unit": "%"}, {"measurement": "inhibition at 15 µM", "setting": "15 μM", "result": 76.5, "unit": "%"}]}]}
